Data set [1] has as its system rabbit red blood cells. On the procedure:
To begin with, the biocompatibility of 1-Pept/Dox NFs was explored from hematological compatibility and histocompatibility. The hemolysis ratio of 1-Pept/Dox NFs was evaluated based on rabbit red blood cells (RBCs). […] Then, the samples were first centrifuged to obtain the supernatant and measured the absorbance at 540 nm. Deionized water served as a positive group and 0.9% of the NaCl solution was utilized as a negative group. The hemolysis ratio of samples was obtained according to the hemolysis rate equation.

Data set [2] deals with HT29-xenografted tumor. In words: In vivo antitumor efficacy, HT29 xenograft. Also on record: species or system BALB/C nude mice. Conditions: for percentage of Ki67-positive signals in tumor tissues: tumor tissue, day 21. On the procedure: HT29 tumor-bearing mice model was developed to study the antitumor effect in vivo of 1-Pept/Dox NFs. HT29 cell suspension (100 µL, 5.0 × 10^6 cells) was mixed with an equal volume of Matrigel. Then, the mixtures were subcutaneously injected into the right back of male BALB/C nude mice (6–8 weeks, Jinan Pengyue Experimental Animal Breeding Co., Itd, China). […] (1) PBS; (2) 1-Pept NFs; […] The dosage was fixed as 13 µmol/kg for Dox moiety and 130 µmol/kg for 1-Pept. The tumor size and body weight of the mice were determined every three days. The tumor size was obtained using the equation V = L×W^2/2, where L and W denote the length and width, respectively. At the end of the day 21st, the tumor tissues were collected for HE staining to observe morphological changes in tumor cells. The actin and tubulin staining of the cell sections was also conducted to study the cytoskeleton changes after drug treatment. The Ki-67 staining was conducted to observe the proliferative status of tumor cells. Meanwhile, the signals of TUNEL and expressions of activated caspase-3 were also measured by immunohistochemical staining.

The test system of data set [3] is trypsin (Tps). Kind of data set: in vitro. Conditions: isolated enzyme.
Description: 1-Pept (1 mg/mL) was dissolved in PBS solution, and the pH was modulated to a neutral condition. After that, Tps (1 U/mL) was added to the solution to trigger the conversion of 1-Pept (NapFFGYKCD) into Pept (NapFFGYK). At fixed time points, 50 µL 1-Pept solution was taken out and mixed with 150 µL methanol to obtain the mixed solution. Finally, the mixed solution was analyzed with HPLC-MS to investigate the conversion rate.
A short description of data set [4]: Minimum gelation concentration (MGC) by vial inversion. Format: physicochemical. Conditions: PBS, neutral pH, Tps 5 U/mL or Dox 0.1 eq where present. The procedure:
The enzyme-directed assembly behavior of 1-Pept was subsequently investigated. 1-Pept was dissolved in PBS solution, and the pH was adjusted to neutral condition. The formation of 1-Pept nanofibrillar hydrogels was monitored via a vial inversion method. 1-Pept/Tps NFs were obtained after mixing Tps (5 U/mL) with 1-Pept solution. The MGC of 1-Pept NFs and 1-Pept/Tps NFs could be determined when the samples could not flow.
1-Pept (1.0 wt%) was dissolved in PBS solution and mixed with 0.1 equivalents of Dox to obtain 1-Pept/Dox NFs (1.0 wt%/0.1 eq), and the solutions were kept at 25 °C to obtain 1-Pept/Dox NFs. The MGC, CAC, microscopic morphology, CD analysis, and viscoelasticity were tested according to the above procedures. The intermolecular force between 1-Pept and Dox was examined with fluorescent spectroscopy. Simply, Dox solution (20 µg/mL) was incubated with different concentrations (125, 62.5, 31.3, 15.6, 7.81, and 3.90 µg/mL) of 1-Pept solutions, and the fluorescent spectrum of the sample was recorded at a fixed excitation wavelength of […]. Ulteriorly, the electrostatic interactions between 1-Pept and Dox were explored by adding sodium chloride solution (2 M).

The test system of data set [5] is HT29 cells. The class given is cell-based, human. On the procedure:
HT29 cells were incubated in a 96-well microplate and cultured with 1-Pept/Dox NFs for 48 h. The concentrations of Dox were between 12.5 and 0.391 µM, and 1-Pept were between 125 and 3.91 µM. Then, a fixed volume of 20 µL MTT (5 mg/mL) was added to the wells for co-incubation. After 4 h, the generated formazan could be found. After dissolving in DMSO, the absorbance values were recorded at 490 nm utilizing a microplate reader (Multiskan FC). By comparing the absorbance of the samples and the controls, the cell’s survival rates were calculated. The IC50 values were obtained by Origin 8.0 software. Simultaneously, the MTT assays for NCM460, SW620, SW480, and HCT-15 were performed using the aforementioned procedures.

Data set [6] in a line: In vitro release from 1-Pept/Dox NFs (HPLC), Ritger-Peppas fitting. Format: physicochemical. The procedure:
The in vitro drug release profile of 1-Pept/Dox NFs was conducted in a constant temperature vibrator (40 rpm, 37 °C). 1-Pept/Dox NFs (200 µL, 1.0 wt%/0.1 eq) were prepared and incubated with 200 µL PBS buffer (pH = 7.4, 6.5 and 5.5). At particular time points, 200 µL liquid supernatant was sucked out and further analyzed by HPLC. Simultaneously, 200 µL fresh PBS was added to maintain a fixed volume. Free Dox solutions were used as controls.

Setting [7] is: free Dox solution, 12-h release.

Where two headings read alike, the source gives them in different places. Where a SMILES comes first, the peptide text is derived from it. The star is where a group is joined. Acetyl(2-naphthyl) = O=C(Cc1ccc2ccccc2c1)*

As a reminder, the IC50 is the concentration at which inhibition is half-maximal. `NCCCC[C@H](NC(=O)[C@H](Cc1ccc(O)cc1)NC(=O)CNC(=O)[C@H](Cc1ccccc1)NC(=O)[C@H](Cc1ccccc1)NC(=O)Cc1ccc2ccccc2c1)C(=O)N[C@@H](CS)C(=O)N[C@@H](CC(=O)O)C(=O)O` [1-Pept, 2-Naphthylacetic acid-Phe-Phe-Gly-Tyr-Lys-Cys-Asp] ({Acetyl(2-naphthyl)}-FFGYKCD-OH) registered a hemolysis rate in data set [1] (red cells of rabbit, 1 h, 1.0 wt%) of 1.1%. Also, in data set [2], the “percentage of Ki67-positive signals in tumor tissues” value stood at 60%. Also, in data set [3], the metabolised at 72 h, 1 mg/mL is > 90%. Also, the “minimum gelation concentration (MGC)” value in data set [4] came to 0.8 wt%. Further, in data set [5] (48 h), half-maximal inhibition (IC50) was put at 134 µM.
With `COc1cccc2c1C(=O)c1c(O)c3c(c(O)c1C2=O)C[C@@](O)(C(=O)CO)C[C@@H]3O[C@H]1C[C@H](N)[C@H](O)[C@H](C)O1` [Dox, Doxorubicin], in data set [1], the hemolysis rate is recorded as 2.8%. In addition, in data set [2] (peritumoral s.c. injection days 1, 4, 7, 10, 13 µmol/kg Dox, 130 µmol/kg 1-Pept), the “tumor volume growth rate on the 21st day” value worked out at 3.3. For the same compound, the “percentage of Ki67-positive signals in tumor tissues” value in data set [2] amounted to 45%. Moreover, the IC50 in data set [5] (HT29, 48 h, MTT, read-out: IC50 value of Dox) came out at 2.8 µM. In data set [6] (free Dox solution control, PBS, 37 °C, 40 rpm, HPLC), the “cumulative release of Dox at 12 h” value stood at 51%. Besides, in data set [6] (setting [7]), the “Ritger-Peppas exponential factor n, Dox release” value was 0.35 and the “Ritger-Peppas k, Dox release” value is recorded as 0.21.

The values above are taken from publication PMC11784115, “Trypsin-instructed bioactive peptide nanodrugs with cascading transformations to improve chemotherapy against colon cancer” (Journal of Nanobiotechnology, 2025).
